Assay results published in PubChem BioAssay (NCI).
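1) Cells in 96-well plates. 2) Compound, 48 h, 5 concentrations. 3) Linear interpolation between surrounding doses. 4) Unreached endpoint = highest concentration. Definition used: TGI = concentration required for complete inhibition of growth.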

Assays:
Assay in all cases: DTP human tumour cell line panel, 48 h
COLO 205 colon = test system: COLO 205 colon
A549 NSCLC = test system: A549 NSCLC
MOLT-4 leukemia = test system: MOLT-4 leukemia
BT-549 breast = test system: BT-549 breast
RXF 393 renal = test system: RXF 393 renal
MDA-MB-435 = test system: MDA-MB-435
NCI/ADR-RES ovarian = test system: NCI/ADR-RES ovarian
UACC-257 melanoma = test system: UACC-257 melanoma
OVCAR-4 ovarian = test system: OVCAR-4 ovarian
M14 melanoma = test system: M14 melanoma
UO-31 renal = test system: UO-31 renal
SK-MEL-28 melanoma = test system: SK-MEL-28 melanoma
PC-3 prostate = test system: PC-3 prostate
U251 CNS = test system: U251 CNS
SK-MEL-2 melanoma = test system: SK-MEL-2 melanoma
HS 578T breast = test system: HS 578T breast
MDA-MB-231 breast = test system: MDA-MB-231 breast
SN12C renal = test system: SN12C renal
HCT-15 colon = test system: HCT-15 colon
LOX IMVI melanoma = test system: LOX IMVI melanoma
DU-145 prostate = test system: DU-145 prostate
HCC-2998 colon = test system: HCC-2998 colon
SK-OV-3 ovarian = test system: SK-OV-3 ovarian
A498 renal = test system: A498 renal
NCI-H522 lung = test system: NCI-H522 lung
HOP-62 NSCLC = test system: HOP-62 NSCLC
T-47D breast = test system: T-47D breast
SK-MEL-5 melanoma = test system: SK-MEL-5 melanoma
TK-10 renal = test system: TK-10 renal
SW-620 colon = test system: SW-620 colon
SF-295 CNS = test system: SF-295 CNS
ACHN renal = test system: ACHN renal
EKVX NSCLC = test system: EKVX NSCLC
IGROV1 ovarian = test system: IGROV1 ovarian
NCI-H23 lung = test system: NCI-H23 lung
HOP-92 NSCLC = test system: HOP-92 NSCLC
CAKI-1 renal = test system: CAKI-1 renal
RPMI-8226 leukemia = test system: RPMI-8226 leukemia
K-562 leukemia = test system: K-562 leukemia
OVCAR-8 ovarian = test system: OVCAR-8 ovarian
MDA-N = test system: MDA-N
HL-60(TB) leukemia = test system: HL-60(TB) leukemia
UACC-62 melanoma = test system: UACC-62 melanoma
SNB-19 CNS = test system: SNB-19 CNS
NCI-H460 lung = test system: NCI-H460 lung
KM12 colon = test system: KM12 colon
786-0 renal = test system: 786-0 renal
MCF7 breast = test system: MCF7 breast
SF-268 CNS = test system: SF-268 CNS
NCI-H226 lung = test system: NCI-H226 lung
MALME-3M melanoma = test system: MALME-3M melanoma
SR leukemia = test system: SR leukemia
HCT-116 colon = test system: HCT-116 colon
HT29 colon = test system: HT29 colon
OVCAR-5 ovarian = test system: OVCAR-5 ovarian
SF-539 CNS = test system: SF-539 CNS
CCRF-CEM leukemia = test system: CCRF-CEM leukemia
SNB-75 CNS = test system: SNB-75 CNS

Work on `N#CC12C(=O)N3C(=NC(c4ccco4)NC3c3ccco3)C1(C#N)C(c1ccco1)NC1=C2CCCC1` (stereo unspecified) yielded a TGI (COLO 205 colon) of over 100 µM, a TGI (A549 NSCLC) of over 100 µM and a TGI (MOLT-4 leukemia) of over 100 µM. For the same molecule, the TGI (BT-549 breast) was over 100 µM, the TGI (RXF 393 renal) was over 100 µM and the TGI (MDA-MB-435) was over 100 µM. It also gave a TGI (NCI/ADR-RES ovarian) of over 100 µM, a TGI (UACC-257 melanoma) of over 100 µM and a TGI (OVCAR-4 ovarian) of over 100 µM. It also gave a TGI (M14 melanoma) of over 100 µM, a TGI (UO-31 renal) of over 100 µM and a TGI (SK-MEL-28 melanoma) of over 100 µM. It also gave a TGI (PC-3 prostate) of over 100 µM, a TGI (U251 CNS) of over 100 µM and a TGI (SK-MEL-2 melanoma) of over 100 µM. It also gave a TGI (HS 578T breast) of over 100 µM, a TGI (MDA-MB-231 breast) of over 100 µM and a TGI (SN12C renal) of over 100 µM. The TGI (HCT-15 colon) was over 100 µM, the TGI (LOX IMVI melanoma) was over 100 µM and the TGI (DU-145 prostate) was over 100 µM. The TGI (HCC-2998 colon) was over 100 µM, the TGI (SK-OV-3 ovarian) was over 100 µM and the TGI (A498 renal) was over 100 µM. The TGI (NCI-H522 lung) was over 100 µM, the TGI (HOP-62 NSCLC) was over 100 µM and the TGI (T-47D breast) was over 100 µM. The TGI (SK-MEL-5 melanoma) was over 100 µM, the TGI (TK-10 renal) was over 100 µM and the TGI (SW-620 colon) was over 100 µM. The TGI (SF-295 CNS) was over 100 µM, the TGI (ACHN renal) was over 100 µM and the TGI (EKVX NSCLC) was over 100 µM. It also gave a TGI (IGROV1 ovarian) of over 100 µM, a TGI (NCI-H23 lung) of over 100 µM and a TGI (HOP-92 NSCLC) of over 100 µM. It also gave a TGI (CAKI-1 renal) of over 100 µM, a TGI (RPMI-8226 leukemia) of over 100 µM and a TGI (K-562 leukemia) of over 100 µM. It also gave a TGI (OVCAR-8 ovarian) of over 100 µM, a TGI (MDA-N) of over 100 µM and a TGI (HL-60(TB) leukemia) of over 100 µM. It also gave a TGI (UACC-62 melanoma) of over 100 µM, a TGI (SNB-19 CNS) of over 100 µM and a TGI (NCI-H460 lung) of over 100 µM. The TGI (KM12 colon) was over 100 µM, the TGI (786-0 renal) was over 100 µM and the TGI (MCF7 breast) was over 100 µM. The TGI (SF-268 CNS) was over 100 µM, the TGI (NCI-H226 lung) was over 100 µM and the TGI (MALME-3M melanoma) was over 100 µM. It also gave a TGI (SR leukemia) of over 100 µM, a TGI (HCT-116 colon) of over 100 µM and a TGI (HT29 colon) of over 100 µM. It also gave a TGI (OVCAR-5 ovarian) of over 100 µM.

Work on `N#C/C(=C\c1ccc(F)cc1)c1nc(-c2cc3ccccc3oc2=O)cs1` yielded a TGI (COLO 205 colon) of over 100 µM, a TGI (A549 NSCLC) of over 100 µM and a TGI (MOLT-4 leukemia) of over 100 µM. For the same molecule, the TGI (BT-549 breast) was 24.8 µM, the TGI (RXF 393 renal) was 64.2 µM and the TGI (MDA-MB-435) was over 100 µM. It also gave a TGI (NCI/ADR-RES ovarian) of over 100 µM, a TGI (UACC-257 melanoma) of 65.9 µM and a TGI (OVCAR-4 ovarian) of over 100 µM. It also gave a TGI (M14 melanoma) of 50.7 µM, a TGI (UO-31 renal) of 97.9 µM and a TGI (SK-MEL-28 melanoma) of over 100 µM. For the same molecule, the TGI (PC-3 prostate) was over 100 µM, the TGI (U251 CNS) was 61.4 µM and the TGI (SK-MEL-2 melanoma) was over 100 µM. For the same molecule, the TGI (SF-539 CNS) was 65.9 µM, the TGI (HS 578T breast) was 56.7 µM and the TGI (MDA-MB-231 breast) was 33.7 µM. It also gave a TGI (SN12C renal) of over 100 µM, a TGI (CCRF-CEM leukemia) of over 100 µM and a TGI (HCT-15 colon) of over 100 µM. It also gave a TGI (LOX IMVI melanoma) of over 100 µM, a TGI (DU-145 prostate) of over 100 µM and a TGI (HCC-2998 colon) of over 100 µM. For the same molecule, the TGI (SK-OV-3 ovarian) was 67.5 µM, the TGI (NCI-H522 lung) was 74.4 µM and the TGI (HOP-62 NSCLC) was 25.7 µM. The TGI (T-47D breast) was over 100 µM, the TGI (SK-MEL-5 melanoma) was 41.6 µM and the TGI (TK-10 renal) was 38.3 µM. It also gave a TGI (SW-620 colon) of over 100 µM, a TGI (SF-295 CNS) of 30.3 µM and a TGI (ACHN renal) of over 100 µM. The TGI (EKVX NSCLC) was over 100 µM, the TGI (IGROV1 ovarian) was 85 µM and the TGI (HOP-92 NSCLC) was 29.5 µM. The TGI (CAKI-1 renal) was over 100 µM, the TGI (RPMI-8226 leukemia) was over 100 µM and the TGI (K-562 leukemia) was over 100 µM. The TGI (OVCAR-8 ovarian) was 71.9 µM, the TGI (SNB-75 CNS) was 95.9 µM and the TGI (MDA-N) was over 100 µM. The TGI (HL-60(TB) leukemia) was over 100 µM, the TGI (UACC-62 melanoma) was 38.7 µM and the TGI (SNB-19 CNS) was 41.1 µM. It also gave a TGI (NCI-H460 lung) of over 100 µM, a TGI (KM12 colon) of over 100 µM and a TGI (786-0 renal) of 37.1 µM. For the same molecule, the TGI (MCF7 breast) was over 100 µM, the TGI (SF-268 CNS) was 46.2 µM and the TGI (NCI-H226 lung) was over 100 µM. For the same molecule, the TGI (MALME-3M melanoma) was 52.9 µM, the TGI (SR leukemia) was over 100 µM and the TGI (HCT-116 colon) was over 100 µM. The TGI (HT29 colon) was over 100 µM and the TGI (OVCAR-5 ovarian) was over 100 µM.
